In patent publication EP4559919A1, “TRICYCLIC-CONTAINING MACROCYCLIC COMPOUND AND USE THEREOF” (Medshine Discovery Inc., priority 2022, dated 2024):

How the values were obtained:
ALK(G1202R/L1196M) [1] = target: T1, ALK(G1202R/L1196M) (Homo sapiens, UniProt Q9UM73, G1202R/L1196M); experiment: In vitro kinase inhibitory activity assay, Experimental method 1 (ADP-Glo); type: biochemical; details: final ATP 50 µM, read-out: Kinase half maximal inhibitory concentration IC50 ALK^G1202R/L1196M
T1 construct: purchased Carna
T1 sequence (Q9UM73 19-1620 L1196M/G1202R): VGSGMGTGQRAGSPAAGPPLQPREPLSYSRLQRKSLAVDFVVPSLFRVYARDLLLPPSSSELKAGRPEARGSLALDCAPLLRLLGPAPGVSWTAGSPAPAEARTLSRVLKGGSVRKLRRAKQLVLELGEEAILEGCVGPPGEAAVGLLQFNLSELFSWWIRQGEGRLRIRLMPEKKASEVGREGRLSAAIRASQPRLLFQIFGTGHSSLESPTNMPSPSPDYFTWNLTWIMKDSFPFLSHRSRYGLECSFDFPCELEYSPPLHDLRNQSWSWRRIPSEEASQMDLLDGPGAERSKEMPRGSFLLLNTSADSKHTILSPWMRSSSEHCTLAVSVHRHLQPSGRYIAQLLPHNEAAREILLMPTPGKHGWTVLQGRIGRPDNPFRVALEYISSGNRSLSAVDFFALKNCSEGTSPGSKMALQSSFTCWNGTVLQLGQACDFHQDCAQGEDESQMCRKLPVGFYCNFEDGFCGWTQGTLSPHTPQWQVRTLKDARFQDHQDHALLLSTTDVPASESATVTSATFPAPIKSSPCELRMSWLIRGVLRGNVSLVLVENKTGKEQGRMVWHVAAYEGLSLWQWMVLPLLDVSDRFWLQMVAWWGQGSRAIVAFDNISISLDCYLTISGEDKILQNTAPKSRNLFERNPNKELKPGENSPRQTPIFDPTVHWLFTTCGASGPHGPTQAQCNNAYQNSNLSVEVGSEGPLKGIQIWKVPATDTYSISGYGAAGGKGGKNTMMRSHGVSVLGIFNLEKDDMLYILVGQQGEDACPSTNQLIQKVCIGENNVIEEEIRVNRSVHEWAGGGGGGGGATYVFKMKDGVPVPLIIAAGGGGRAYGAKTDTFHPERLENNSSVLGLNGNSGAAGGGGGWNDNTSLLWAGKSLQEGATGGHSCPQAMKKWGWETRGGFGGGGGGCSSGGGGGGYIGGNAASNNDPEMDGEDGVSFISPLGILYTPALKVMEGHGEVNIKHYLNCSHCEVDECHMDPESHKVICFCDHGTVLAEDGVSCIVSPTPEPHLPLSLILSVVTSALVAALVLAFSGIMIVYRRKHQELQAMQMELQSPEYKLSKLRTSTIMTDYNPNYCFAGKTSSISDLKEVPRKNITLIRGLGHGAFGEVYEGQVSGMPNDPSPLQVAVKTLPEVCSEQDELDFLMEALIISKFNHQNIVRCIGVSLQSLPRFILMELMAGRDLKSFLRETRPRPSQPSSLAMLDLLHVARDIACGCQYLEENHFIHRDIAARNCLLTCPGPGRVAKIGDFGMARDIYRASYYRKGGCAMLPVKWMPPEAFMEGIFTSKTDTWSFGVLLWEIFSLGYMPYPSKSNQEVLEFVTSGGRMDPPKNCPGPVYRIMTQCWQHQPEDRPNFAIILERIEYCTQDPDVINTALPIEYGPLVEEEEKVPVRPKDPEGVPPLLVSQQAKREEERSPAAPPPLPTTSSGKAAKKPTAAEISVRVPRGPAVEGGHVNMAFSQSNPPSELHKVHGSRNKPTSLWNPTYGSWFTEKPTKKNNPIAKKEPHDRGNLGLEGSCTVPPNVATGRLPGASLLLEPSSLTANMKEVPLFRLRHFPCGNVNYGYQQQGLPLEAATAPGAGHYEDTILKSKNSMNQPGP
Method: (§1) The kinase inhibitory activity assays of the compounds against ALK, ALK^L1196M, ALK^G1202R, ALK^G1202R/L1196M, ROS1, and TRKB were conducted at Wuhan Heyan Biotechnology Co., Ltd. or Hefei PreceDo Biotechnology Co., Ltd.
(§2) Experimental materials: ALK Active, ALK(L1196M) Active, ALK(G1202R) Active, and ALK(G1202R/L1196M) Active were purchased from Carna; SRC Substrate was purchased from SignalChem; IGF1R tide was purchased from SignalChem; ADP-Glo Kinase Assay was purchased from Promega; Kinase assay buffer III was purchased from SignalChem; and Nivo multimode plate reader (PerkinElmer).
(§3) Each concentration of the compounds was further diluted 20-fold using 1X kinase buffer to prepare compound working solutions containing 5% DMSO. 1 µL of each concentration gradient working solution was added to a microplate, with duplicate wells set for each concentration. 2 µL of ALK enzyme (15 ng per well) and 2 µL of a mixture of substrate and ATP (25 µM ATP, 0.5 µg/µL SRC Substrate) were added to the microplate. […] The reaction system was placed at 25°C for 1 hour. After the reaction, 5 µL of ADP-Glo reagent was added to each well and reacted at 25°C for another 40 minutes. After the reaction, 10 µL of kinase detection reagent was added to each well and reacted at 25°C for 30 minutes. Chemiluminescence was then measured using the PerkinElmer Nivo multimode plate reader with an integration time of 0.5 seconds.
ALK (G1202R/L1196M) kinase inhibition assay method: The preparation method for the working solution of the test compound was the same as for the ALK kinase. […] The subsequent steps were the same as for ALK kinase.
(§4) The IC50 value could then be derived by performing a curve fit using a four-parameter logistic model (obtained using the "log(inhibitor) vs. response -- Variable slope" mode in GraphPad Prism).

ALK(G1202R) = target: T2, ALK(G1202R) (Homo sapiens, UniProt Q9UM73, G1202R); experiment: as above; type: biochemical; details: final ATP 50 µM, read-out: Kinase half maximal inhibitory concentration IC50 ALK^G1202R
T2 construct: purchased Carna
T2 sequence (Q9UM73 19-1620 G1202R): as the sequence (Q9UM73 19-1620 L1196M/G1202R) above, with M1178L counted along it
Method: as §1, §2, §3
ALK (G1202R) kinase inhibition assay method: The preparation method for the working solution of the test compound was the same as for the ALK kinase. […] The subsequent steps were the same as for ALK kinase.
as §4

TRKB [2] = target: T3, TRKB (Homo sapiens, UniProt Q16620); experiment: as above; type: biochemical; details: read-out: Kinase half maximal inhibitory concentration IC50 TRKB
T3 construct: purchased Carna
T3 sequence (Q16620 32-822): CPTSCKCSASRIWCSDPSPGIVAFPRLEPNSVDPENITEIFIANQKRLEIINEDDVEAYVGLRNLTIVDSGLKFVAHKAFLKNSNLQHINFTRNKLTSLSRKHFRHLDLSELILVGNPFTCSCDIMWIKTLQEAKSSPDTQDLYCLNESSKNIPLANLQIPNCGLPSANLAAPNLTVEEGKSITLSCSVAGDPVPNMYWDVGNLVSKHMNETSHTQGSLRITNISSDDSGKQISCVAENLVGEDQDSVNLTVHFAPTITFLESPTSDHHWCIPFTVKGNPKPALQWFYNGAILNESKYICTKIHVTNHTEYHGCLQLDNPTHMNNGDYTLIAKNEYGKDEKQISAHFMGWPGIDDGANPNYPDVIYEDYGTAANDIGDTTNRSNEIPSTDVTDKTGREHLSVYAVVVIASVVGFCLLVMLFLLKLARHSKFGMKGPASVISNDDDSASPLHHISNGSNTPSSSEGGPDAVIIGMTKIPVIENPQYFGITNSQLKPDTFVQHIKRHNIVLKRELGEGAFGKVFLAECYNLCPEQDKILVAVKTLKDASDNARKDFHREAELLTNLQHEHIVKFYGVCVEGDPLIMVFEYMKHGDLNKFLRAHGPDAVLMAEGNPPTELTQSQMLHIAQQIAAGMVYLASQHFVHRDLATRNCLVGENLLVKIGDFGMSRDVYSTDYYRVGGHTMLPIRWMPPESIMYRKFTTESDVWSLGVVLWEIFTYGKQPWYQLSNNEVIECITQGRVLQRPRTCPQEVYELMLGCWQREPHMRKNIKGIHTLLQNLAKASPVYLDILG
Method: as §1, §2, §3
TRKB kinase inhibition assay method: The preparation method for the working solution of the test compound was the same as for the ALK kinase. 2 µL of TRKB (0.5 ng per well) and 4 µL of a mixture of substrate and ATP (5 µM ATP, 0.5 µM SRC Substrate) were added to the microplate. […] The subsequent steps were the same as for ALK kinase.
as §4

ALK(G1202R/L1196M) [3] = target: T1, ALK(G1202R/L1196M); experiment: In vitro kinase inhibitory activity assay, Experimental method 2 (ADP-Glo); type: biochemical
Method: as §1
(§5) Experimental materials: ALK (G1202R/L1196M) Active and TRKB were purchased from Carna; IGF1 was purchased from GenScript; PolyE4Y1 was purchased from SIGMA; ADP-Glo™ Reagent was purchased from Promega; ATP was purchased from Promega; Kinase Detection Reagent was purchased from Promega; microplate reader ( PerkinElmer).
Reaction system: ALK(G1202R/L1196M) reaction concentration 8.63 nM, ATP concentration 5.0 µM, substrate IGF1 concentration 0.2 µg/µL. ALK(G1202R/L1196M) kinase buffer was 40 mM Tris-HCl (pH 7.5) + 20 mM magnesium chloride + 0.1 mg/mL BSA + 50 µM DTT.
(§6) ALK(G1202R/L1196M) and TRKB detection method: 2 µL of kinase and 1 µL of compound were added to a 384-well plate; 2 µL of substrate/ATP mixture was added and incubated at room temperature in the dark for 60 minutes; 5 µL of ADP-Glo™ reagent was added and incubated at room temperature for 40 minutes; 10 µL of kinase detection reagent was added and incubated at room temperature for 30 minutes; the plate was read on a microplate reader, and luminescence was recorded (integration time set to 0.5 seconds).
as §4

TRKB [4] = target: T3, TRKB; experiment: as above; type: biochemical
Method: as §1, §5
TRKB reaction concentration 4.47 nM, ATP concentration 5.0 µM, substrate PolyE4Y1 concentration 0.2 µg/µL. TRKB kinase buffer was 40 mM Tris-HCl (pH 7.5) + 20 mM magnesium chloride + 2.5 mM manganese chloride + 0.1mg/mL BSA+ 50 µM DTT.
as §6, §4

[5] = system: Ba/F3-EML4-ALK-G1202R/L1196M; experiment: Anti-proliferative activity test on Ba/F3 cell lines (CellTiter-Glo); type: cell-based; details: Ba/F3 EML4-ALK-G1202R-L1196M; 72 hours; read-out: Half maximal inhibitory concentration IC50 for cells Ba/F3-EML4-ALK-G1202R/L1196 M
Method: (§7) • (1) Cell culture: The cell lines were cultured in an incubator at 37°C with 5% CO2. Regular passaging was performed, and cells in the logarithmic growth phase were selected for plating; • (2) Preparation of compound storage plate: The test compounds were prepared into a 10 mM solution with DMSO (Stock Con.); The compounds were then prepared into a 1 mM solution with DMSO (Work Con.); 1 µL of the stock solution was mixed with 9 µL of DMSO to prepare a 10 µL work solution. • (3) Preparation of 1000× compound storage plate (tube): The compounds were 3-fold serially diluted from […] to the lowest concentration, for a total of 8 concentrations; • (4) Preparation of 20× compound working solution: 98 µL of cell culture medium was added to a flat-bottomed 96-well transparent drug plate. From the 1000× compound storage plate, 2 µL of the compound was pipetted into the cell culture medium in the 96-well transparent drug plate. In the solvent control, 2 µL of DMSO was added. After the compound or DMSO was added, the mixture was homogenized using a pipette. • (5) Cells were stained with trypan blue and viable cells were counted to ensure a cell viability of 90% or more. The cell concentration was adjusted to an appropriate concentration; • (6) 95 µL of cell suspension (2000 cells/well) was added to each well of the compound assay cell plate, and cell-free culture medium containing 0.1% DMSO was added to the Min control wells; • (7) Administration in the compound assay cell plate: 5 µL of 20× compound working solution was added to the cell culture plate, 5 µL of DMSO-cell culture medium mixture was added to the Max control wells, and the final concentration of DMSO was 0.1%; • (8) The culture plate was then incubated in an incubator at 37°C with 5% CO2 for 72 hours; • (9) The following operations were conducted in accordance with the instructions of the Promega CellTiter-Glo Luminescent Cell Viability Assay Kit (Promega-G7573): CellTiter-Glo buffer was thawed and brought to room temperature; CellTiter-Glo substrate was brought to room temperature; CellTiter-Glo buffer was added to a bottle of CellTiter-Glo substrate to dissolve the substrate, thereby preparing CellTiter-Glo working solution; The mixture was slowly vortexed and shaken to be fully dissolved; The cell culture plate was removed and allowed to equilibrate to room temperature for 10 minutes; 50 µL (equal to half the volume of cell culture medium in each well) of CellTiter-Glo working solution was added to each well; The culture plate was shaken on an orbital shaker for 2 minutes to induce cell lysis; The plate was then left at room temperature for 10 minutes to stabilize the luminescent signal; The luminescent signal was detected using a SpectraMax Paradigm plate reader; Cell viability assay was conducted using CellTiter-Glo luminescence method.
(§8) Data analysis: The corresponding […] value (RLU) for each well was obtained from SpectraMax Paradigm readings. […] The inhibition rates corresponding to compounds at different concentrations were calculated in Excel, and the inhibition rate curves were plotted using GraphPad Prism software to calculate relevant parameters, including the maximum and minimum inhibition rates of the cells and the IC50 value.

Ba/F3-TEL-TRKB = experiment: as above; type: cell-based; details: Mus musculus, BaF3; 72 hours; read-out: Half maximal inhibitory concentration IC50 for cells Ba/F3-TEL-TRKB
Method: as §7, §8

[6] = Experimental method 2, ATP 5.0 µM, substrate IGF1, read-out: Kinase half maximal inhibitory concentration IC50 ALK^G1202R/L1196M
[7] = Experimental method 2, ATP 5.0 µM, substrate PolyE4Y1, read-out: Kinase half maximal inhibitory concentration IC50 TRKB

Structure (SMILES) | IC50 (ALK(G1202R/L1196M) [1]) [nM] | IC50 (ALK(G1202R/L1196M) [3]; [6]) [nM] | IC50 (TRKB [4]; [7]) [nM] | further results
CCON=C1NC(C)(C)COc2ccc(F)cc2CN2c3nc4c1cnn4cc3OC[C@H]2C(F)F [Compound 002] | 14.6 |  |  | IC50 (ALK(G1202R)): 27.8 nM
COCCON=C1NC(C)(C)COc2ccc(F)cc2CN2c3nc4c1cnn4cc3OC[C@H]2C(F)F [Compound 003] | 11.3 |  |  | IC50 (ALK(G1202R)): 12.2 nM
CC1(C)COc2ncc(F)cc2CN2c3nc4c(cnn4cc3OC[C@H]2C(F)F)C(=S)N1 [Compound 004] | 1.3 |  |  | IC50 (TRKB [2]): 2.4 nM
Cc1nn2cc3c4nc2c1C(=O)NC(C)(C)COc1ccc(F)cc1CN4[C@H](C(F)F)CO3 [Compound 006] |  | 0.6 | 1.2 | 
CC1(C)COc2ccc(F)cc2CN2c3nc4c(cc3OC[C@H]2C(F)F)ncn4C(=O)N1 [Compound 007] |  |  |  | IC50 (ALK(G1202R/L1196M) [3]): 1 nM; IC50 (TRKB [4]): 2.6 nM
CC1(C)COc2ccc(F)cc2CN2c3nc4c(cc3OC[C@H]2C(F)F)ncn4C(=S)N1 [Compound 008] |  | 1.7 | 7.8 | 
CC1(C)COc2ccc(F)cc2CN2c3nc4c(c(Br)nn4cc3OC[C@H]2C(F)F)C(=O)N1 [Compound 009] |  | 0.8 | 2 | IC50 [5]: 7.3 nM; IC50 (Ba/F3-TEL-TRKB): 7.8 nM
CC1(C)COc2ccc(F)cc2CN2c3nc4c(c(C#N)nn4cc3OC[C@H]2C(F)F)C(=O)N1 [Compound 010] |  | 1.5 | 4.4 | 
